Values joined by “and” are separate entries in the source; they are usually repeats but may differ in a detail not shown here. Equal values may be shown once.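 Briefly, cells in 96-well plates were exposed to five compound concentrations for 48 h, and endpoints were estimated by linear interpolation. The concentration for 50% growth inhibition is given as GI50. TGI marks complete inhibition of growth.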 Where only a bound is given, the exact number is not on record here.

Holding throughout (assay): growth of human tumour cells (NCI), 48 h
The subject of test [1] is NCI-H522 lung.
The test system of test [2] is SW-620 colon.
Test [3] relates to MDA-MB-231 breast.
In test [4] the test system is UACC-62 melanoma.
The subject of test [5] is HT29 colon.
In test [6] the test system is SNB-75 CNS.
Test [7] relates to A498 renal.
Test [8] has as its system RXF 393 renal.
Test [9] concerns M14 melanoma.
Test [10] relates to KM12 colon.

As to `CN(C)C(=O)OCc1nc2c(N3CCOCC3)nc(-c3ccccc3)nc2n1C`, the GI50 in [1] was 0.454 µM; in test [2], 0.305 µM; in test [3], 1.25 µM; in test [4], 1.39 µM; in test [5], 0.476 µM; in test [6], 1.1 µM. The GI50 in [7] was 1.34 µM; in test [8] it was 0.566 µM; in test [9] it was 0.609 µM; in test [10] it was 1.54 µM. For the same molecule, the TGI in [1] is 2.02 µM; in test [2], 0.899 µM; in test [3], 2.62 µM; in test [4], 2.73 µM; in [5], 1.78 µM; in [6], 2.37 µM. Further, the TGI in test [7] is 2.68 µM; in [8], 1.68 µM; in test [9], 1.9 µM; in test [10], 3.32 µM.
Take `CNCC/C=C1\c2cc3c(cc2-c2c1c1cc(OC)c(OC)cc1c(=O)n2C)OCO3`: the GI50 is 0.122 µM in test [1]; less than 0.0142 µM in test [2]; 1.78 µM in test [3]; 0.344 µM in [4]; 0.21 µM in test [5]; 3.26 µM in test [6]. Moreover, the GI50 in test [7] was 2.97 µM; in test [8], 1.51 µM; in test [9] it was 0.621 µM; in test [10], less than 0.0507 µM. Moreover, the TGI was 16.2 µM in test [1]; 16.4 µM in [2]; 13.6 µM in [3]; 2.3 µM in [4]; greater than 100 µM in test [5]; 33.8 µM in [6]. Besides, the TGI in test [7] was determined as 12 µM; in test [8] it was 14.9 µM; in [9], 17 µM; in test [10], 0.504 µM.
As for `COCCOCCOCc1n(Cc2ccc3ccccc3c2)c2ccccc2[n+]1Cc1ccc2ccccc2c1`, the GI50 in [1] was 0.303 µM; in [2], 0.624 µM; in test [3], 0.38 µM; in test [4] it was 0.329 µM; in test [5] it was 0.321 µM; in test [6], 0.236 µM. For the same molecule, the GI50 in test [7] was 0.92 µM; in test [8] it was 0.318 µM; in test [9], 0.491 µM; in test [10] it was 0.352 µM. Also, the TGI in test [1] was 1.3 µM; in test [2], 2.2 µM; in test [3] it was 1.64 µM; in test [4] it was 1.45 µM; in [5], 1.34 µM; in test [6] it was 1.31 µM. The TGI in test [7] is 2.19 µM; in test [8], 1.58 µM; in [9] it was 1.99 µM; in [10], 1.29 µM.
With `Nc1nonc1-c1nc2ccccc2n1Cc1ccc(F)cc1`, the GI50 in [1] is 4.42 µM; in test [2] it was 3.54 µM; in test [3], 6.84 µM; in test [4] it was 4.63 µM; in test [5] it was 3.55 µM; in [6], 1.41 µM. In addition, the GI50 is 2.2 µM in test [7], 4.42 µM in test [8], 4.64 µM in test [9] and 3.71 µM in test [10]. In addition, the TGI in [1] is greater than 100 µM; in test [2], greater than 100 µM; in [3], greater than 100 µM; in test [4], greater than 100 µM; in test [5], greater than 100 µM; in test [6], 9.52 µM. Moreover, the TGI in [7], in test [8], in test [9] and in [10] was greater than 100 µM in each case.
`CCOc1ccccc1NC(=O)C(=O)C(/C(=N/N)C(=O)OC)c1nc2ccc([N+](=O)[O-])cc2[nH]c1=O` (configuration not stated): the TGI in [1], in test [2], in test [3], in test [4], in test [5] and in test [6] was greater than 100 µM throughout. The TGI in test [7], in test [8], in test [9] and in test [10] was greater than 100 µM throughout.
With `CCN(CC)c1c(-c2ccccc2)n[nH]c1C(=O)OC`, the GI50 was 18.5 µM in test [1]; 26.6 µM in test [2]; 35.8 µM in test [3]; 15.5 µM in test [4]; 19.4 µM in test [5]; 33.9 µM in test [6]. Further, the GI50 was 0.519 µM in [7], 21.9 µM in [8], 30.1 µM in test [9] and 17.8 µM in test [10]. Moreover, the TGI was 50.7 µM in test [1]; greater than 100 µM in [2]; 60.4 µM in test [3]; 37.7 µM in [4]; 33.5 µM in [5]; greater than 100 µM in [6]. Further, the TGI in test [7] was found to be 31.7 µM; in test [8] it was 56.9 µM; in test [9] it was 86.9 µM; in [10], 47 µM.
`COc1cc(Cl)cc(-c2nn(-c3cccc(NC(=O)Nc4cccc(C(F)(F)F)c4)c3)cc2-c2ccncc2)c1`: the GI50 was 0.455 µM in test [1]; 2.3 µM in [2]; 1.59 µM in [3]; 1.47 µM in test [4]; 1.51 µM in test [5]; 1.78 µM in test [6]. Besides, the GI50 in [7] is 2.25 µM; in test [8], 1.4 µM; in test [9], 1.34 µM; in [10] it was 0.611 µM. Besides, the TGI was determined as 2.51 µM in [1]; 26.8 µM in [2]; 4.91 µM in test [3]; 3.84 µM in test [4]; 6.24 µM in test [5]; 13.9 µM in test [6]. In addition, the TGI in [7] is 25.6 µM; in [8] it was 4.35 µM; in test [9], 3.98 µM; in [10], 4.79 µM.
In the case of `Cc1c(Cl)c(=O)oc2cc(OC/C=C3\CCC(=O)O3)ccc12`, the GI50 in test [1] is 11 µM; in test [2] it was 13.5 µM; in [3], 16.8 µM; in test [4], 16.8 µM; in test [5] it was 17.2 µM; in test [6] it was 17.9 µM. Also, the GI50 in test [7] is 21.1 µM; in test [8], 23.5 µM; in [9], 13.3 µM; in test [10], 26.1 µM. For the same molecule, the TGI in test [1] was 24.2 µM; in [2], 35.6 µM; in [3], 33.2 µM; in test [4], 33.9 µM; in test [5], 43.3 µM; in [6], 37.5 µM. Besides, the TGI was 75.3 µM in [7], greater than 100 µM in test [8], 31.7 µM in [9] and 75.3 µM in test [10].
Take `CC1=C(/C=C/C(=O)CC(=O)/C=C/C2=C(C)CCCC2(C)C)C(C)(C)CCC1`: the GI50 is 26.5 µM in test [1]; 25.7 µM in test [2]; 52.3 µM in [3]; 19.1 µM in test [4]; 28.3 µM in test [5]; 49.6 µM in [6]. In addition, the GI50 in test [7] was 51.7 µM; in [8] it was 4.38 µM; in [9], 47.7 µM; in [10], 32.9 µM. In addition, the TGI in [1] is greater than 100 µM; in test [2], greater than 100 µM; in test [3] it was greater than 100 µM; in [4], 44.7 µM; in test [5], greater than 100 µM; in test [6], greater than 100 µM. The TGI was greater than 100 µM in test [7], 16 µM in test [8], greater than 100 µM in [9] and greater than 100 µM in test [10].
For the molecule `CC[C@@]1(OC(=O)C(N)CCCCN)C(=O)OCc2c1cc1n(c2=O)Cc2cc3ccccc3nc2-1` (some centres not stated), the TGI was 2.39 µM in test [1]; greater than 28.7 µM in [2]; greater than 100 µM in test [3]; 0.0707 µM in [4]; 11.4 µM in test [5]; 0.609 µM in [6]. The TGI in [7] is 0.455 µM; in test [8], 0.861 µM; in [9], 1.37 µM; in test [10], 5.26 µM.
For the molecule `CC(C)(C)OC(=O)NCCCCn1c2c(c3ccccc3c1=O)C(=O)c1ccccc1-2`, the GI50 is 27 µM in test [1]; 25.3 µM in test [2]; 17.1 µM in test [3]; 10.9 µM in test [4]; 32.4 µM in test [5]; 35.4 µM in test [6]. Also, the GI50 was 23.4 µM in [7], 23.1 µM in [8], 36.4 µM in test [9] and 28.9 µM in [10]. Further, the TGI is greater than 100 µM in [1]; greater than 100 µM in [2]; 53.1 µM in test [3]; 27.8 µM in [4]; greater than 100 µM in test [5]; greater than 100 µM in [6]. Moreover, the TGI in test [7] is 65.3 µM; in [8] it was greater than 100 µM; in [9], greater than 100 µM; in test [10] it was greater than 100 µM.
As for `CCOC(=O)C(Cc1c[nH]c2cc(N(CCO)CCO)ccc12)(NC(C)=O)C(=O)OCC`, the GI50 in [1] was 61.9 µM; in [2] it was 398 µM; in test [3], 960 µM; in [4], 66.8 µM; in test [5], 305 µM; in [7], 570 µM. The GI50 is 128 µM in [8], 517 µM in [9] and 143 µM in test [10]. The TGI in [1], in test [2], in test [3], in test [4], in test [5] and in [6] was greater than 1000 µM in each case. Further, the TGI in test [7] was greater than 1000 µM; in test [8] it was 719 µM; in test [9], greater than 1000 µM; in test [10], 463 µM.
Turning to `O=C(O)C1CC=CCC1C(=O)Nc1cccc(O)c1` (configuration not stated), the TGI in [1], in [2], in test [3], in test [4], in [5] and in test [6] was greater than 100 µM throughout. The TGI in [7], in test [8], in test [9] and in [10] was greater than 100 µM each time.
In the case of `CN1CCN(c2ccc(OC(F)(F)F)c(Nc3ncc4c(n3)-c3c(c(C(N)=O)nn3CCO)CC4)c2)CC1`, the GI50 in test [1] was 0.03 µM and 0.0265 µM; in test [2], 0.0273 µM and 0.0316 µM; in test [3], 0.0755 µM and 0.059 µM; in [4] it was 0.0454 µM and 0.123 µM; in [5], 0.0349 µM and 0.0348 µM; in [6], 0.0582 µM and 0.145 µM. For the same molecule, the GI50 was 0.0469 µM and 0.101 µM in test [7]; 0.398 µM and 0.102 µM in test [8]; 0.0404 µM and 0.0428 µM in test [9]; 0.0328 µM and 0.0354 µM in test [10]. Further, the TGI in test [2] is greater than 84.3 µM; in test [3] it was 8.61 µM and 3.23 µM; in test [4], 21.1 µM and > 4.66 µM; in test [5], greater than 82.9 µM; in [6] it was 11.7 µM and 1.49 µM; in test [7], 0.638 µM and 0.588 µM. Moreover, the TGI in test [8] was 21 µM and > 10 µM; in test [10], 35.4 µM and > 10 µM.

(Values after PubChem BioAssay (NCI).)
